The values that follow come from ChEMBL document CHEMBL1201862, “PubChem BioAssay data set” (2004).

One experiment can be described thus: cells. As to conditions: HEK293.
The target of experiment [1] is T1, Voltage-gated N-type calcium channel alpha-1B subunit/Amyloid beta A4 precursor protein-binding family A member 1 (Homo sapiens, UniProt Q00975+Q02410). Type of experiment: protein assay.
Experiment [2] deals with T2, SUMO-activating enzyme (Homo sapiens, UniProt Q9UBT2). Description: SUMOylation inhibitor hit validation, confirmation, SUMOylation inhibitor project, biochemical, AlphaScreen (AID 2018). Type of experiment: functional. On the technique in general: Bead proximity is the source of the signal in Alpha formats.
The target in experiment [3] is Mannose-6-phosphate isomerase (Homo sapiens, UniProt P34949). Put plainly: human PMI inhibitors, high substrate, primary screen, biochemical, fluorescence intensity, high mannose 6-phosphate (AID 1220).
The target of experiment [4] is T2, SUMO-activating enzyme. Put plainly: inhibitors of in vitro SUMOylation cascade, primary screen, biochemical, HTRF, uHTS (AID 2006). Type of experiment: protein-complex assay. A general note: In TR-FRET formats the signal depends on donor and acceptor labels being close together.
Experiment [5] addresses T3, Apoptotic protease-activating factor 1 (Homo sapiens, UniProt O14727).
T3 sequence (O14727 whole entry): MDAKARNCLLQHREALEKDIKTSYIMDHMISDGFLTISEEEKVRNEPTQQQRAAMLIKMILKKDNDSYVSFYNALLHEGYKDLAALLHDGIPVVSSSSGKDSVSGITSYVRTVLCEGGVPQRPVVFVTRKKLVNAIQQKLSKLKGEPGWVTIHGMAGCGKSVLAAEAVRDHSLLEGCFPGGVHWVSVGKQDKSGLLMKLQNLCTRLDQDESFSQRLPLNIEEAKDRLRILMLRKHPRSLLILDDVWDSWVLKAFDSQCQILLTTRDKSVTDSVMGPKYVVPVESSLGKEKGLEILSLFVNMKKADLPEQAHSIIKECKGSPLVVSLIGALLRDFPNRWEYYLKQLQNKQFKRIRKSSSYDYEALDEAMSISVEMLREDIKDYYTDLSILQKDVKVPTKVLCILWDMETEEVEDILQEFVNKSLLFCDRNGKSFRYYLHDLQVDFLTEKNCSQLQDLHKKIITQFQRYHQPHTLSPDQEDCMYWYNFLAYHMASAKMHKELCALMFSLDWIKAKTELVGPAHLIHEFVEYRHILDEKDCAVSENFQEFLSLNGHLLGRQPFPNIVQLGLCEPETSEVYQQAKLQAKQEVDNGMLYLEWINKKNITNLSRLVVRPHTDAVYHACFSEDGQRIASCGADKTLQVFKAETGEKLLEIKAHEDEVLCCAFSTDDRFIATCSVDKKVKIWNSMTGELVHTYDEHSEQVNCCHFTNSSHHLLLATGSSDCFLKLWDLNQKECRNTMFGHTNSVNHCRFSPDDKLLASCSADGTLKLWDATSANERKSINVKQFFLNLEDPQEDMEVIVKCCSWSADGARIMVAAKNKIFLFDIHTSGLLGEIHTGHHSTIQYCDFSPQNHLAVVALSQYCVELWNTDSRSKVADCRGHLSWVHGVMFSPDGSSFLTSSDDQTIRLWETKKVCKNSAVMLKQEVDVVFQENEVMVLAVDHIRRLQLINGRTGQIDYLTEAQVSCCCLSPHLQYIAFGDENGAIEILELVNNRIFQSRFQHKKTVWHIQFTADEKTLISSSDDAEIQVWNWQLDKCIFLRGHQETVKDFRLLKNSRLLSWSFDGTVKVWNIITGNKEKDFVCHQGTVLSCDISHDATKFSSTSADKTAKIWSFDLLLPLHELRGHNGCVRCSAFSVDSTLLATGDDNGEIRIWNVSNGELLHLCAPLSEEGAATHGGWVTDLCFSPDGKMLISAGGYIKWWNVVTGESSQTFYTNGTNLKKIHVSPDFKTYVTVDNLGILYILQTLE
Type of experiment: functional.

Experiment [6] deals with T4, Polyadenylate-binding protein 1 (Homo sapiens, UniProt P11940). Put plainly: PABP1 MLLE–PAM2 binding inhibitor potency, dose response, biochemical, fluorescence polarization, FITC-PAM2 peptide (AID 602259). Format: functional. As to conditions: read-out: IC50_Mean.
The target of experiment [7] is Glucose-6-phosphate 1-dehydrogenase (Homo sapiens, UniProt P11413). Description: human G6PD enzyme inhibitors, dose response, selectivity assay for P. falciparum G6PD inhibitor project, biochemical, fluorescence (AID 504792). Type of experiment: functional.
Experiment [8] addresses T1, Voltage-gated N-type calcium channel alpha-1B subunit/Amyloid beta A4 precursor protein-binding family A member 1. Type of experiment: protein assay. This is another data set of the same source.
The target in experiment [9] is T4, Polyadenylate-binding protein 1. Put plainly: PABP1 MLLE–PAM2 interaction inhibitors, dose response, miRNA deadenylation inhibitor project, biochemical, fluorescence polarization, Cy5-PAM2 peptide, secondary (AID 602260). Type of experiment: functional. As to conditions: read-out: IC50_Mean. Background: Fluorescence polarisation rises when a labelled molecule tumbles more slowly, as on binding a larger partner.

Experiment [10] deals with Adenosylmethionine-8-amino-7-oxononanoate aminotransferase (Mycobacterium tuberculosis, UniProt P9WQ81). Description: Mycobacterium tuberculosis BioA enzyme inhibitor Measured in Biochemical System Using Plate Reader - 2163-02_Inhibitor_Dose_CherryPick_Activity. Format: functional, Mycobacterium tuberculosis UT205.
Experiment [11] in a line: HEK293 Cytotoxicity Assay Measured in Cell-Based System Using Plate Reader - 7071-01_Inhibitor_Dose_CherryPick_Activity_Set2. Format: functional.
For the next experiment, the system named is HEK293. Put plainly: HEK293T cell cytotoxicity, dose response, cytotoxicity control, ATP luminescence, cherry-pick samples (AID 687005).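 Also: cells exposed to compound for 48 hours.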 Type of experiment: functional, cell-based. The conditions noted are these: Homo sapiens.
The nature of experiment [12]: cytotoxicity in HEK293 cells, dose response, cytotoxicity control, cell-based, plate reader, cherry-pick (AID 651899). Format: functional.
The target of experiment [13] is COUP transcription factor 2 (Homo sapiens, UniProt P24468). Description: Luminescence-based cell-based high throughput dose response assay to identify inhibitors of COUP-TFII (NR2F2). Format: functional.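 Also: HEK293 cells transiently cotransfected with COUP-TFII expression vector and reporter; luciferase reporter luminescence driven by COUP-TFII from the pX2-168 reporter plasmid.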
Experiment [14] can be described thus: A549 cell cytotoxicity, dose response, cytotoxicity control, plate reader, cherry-pick, antagonist series (AID 743412). Format: functional, cell-based.
Experiment [15] has as its target T5, Heat shock factor protein 1 (Mus musculus, UniProt P38532).
T5 sequence (P38532 whole entry): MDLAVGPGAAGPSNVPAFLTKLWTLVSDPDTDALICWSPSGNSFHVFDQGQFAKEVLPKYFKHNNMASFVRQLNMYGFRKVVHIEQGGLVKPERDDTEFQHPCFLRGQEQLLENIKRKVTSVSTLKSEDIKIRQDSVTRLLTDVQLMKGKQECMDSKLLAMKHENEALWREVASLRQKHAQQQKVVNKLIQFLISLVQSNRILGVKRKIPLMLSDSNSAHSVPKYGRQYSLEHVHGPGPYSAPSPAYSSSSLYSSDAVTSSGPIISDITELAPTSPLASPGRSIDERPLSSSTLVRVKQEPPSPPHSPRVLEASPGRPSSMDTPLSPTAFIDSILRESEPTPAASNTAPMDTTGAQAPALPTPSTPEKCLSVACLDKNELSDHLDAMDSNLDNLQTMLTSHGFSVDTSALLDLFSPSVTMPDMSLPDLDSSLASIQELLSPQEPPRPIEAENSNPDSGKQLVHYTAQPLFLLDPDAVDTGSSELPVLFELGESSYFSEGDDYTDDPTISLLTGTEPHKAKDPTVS
Description: inhibition of MG132-induced HSE-luciferase signal, confirmation, cell-based, NIH3T3, luminescence, dose retest (AID 2382).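 Also: NIH3T3 fibroblasts with HSF1-driven luciferase reporter stressed by proteasome inhibitor MG132; luminescence from HSF1-driven luciferase expression after 8 hours of MG132 stress.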 Type of experiment: functional.

Experiment [16] can be described thus: MC4R antagonists, dose response, counter-screen for LGR2 antagonist project, cell-based, plate reader, cherry pick (AID 743444).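 Also: transfected HEK 293 cells stimulated with alpha-MSH peptide; potency of inhibitors of the alpha-MSH evoked signal.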 Format: functional.
Experiment [17] in a line: LGR2 antagonists, dose response, cell-based, HEK293, CRE-luciferase reporter, cherry pick, set 2 (AID 743343).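 Also: transfected cells were stimulated with diluted bursicon conditioned medium after compound addition.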 Type of experiment: functional.
Experiment [18] is described as follows: HepG2 cell cytotoxicity, dose response, cytotoxicity control, plate reader, cherry-pick, antagonist series (AID 743416). Type of experiment: functional, cell-based.
Experiment [19] can be described thus: reduction of Shn3 3'UTR firefly luciferase signal, dose response, Schnurri-3 inhibitor project, cell-based, Clone20 osteoblasts, cherry-pick, set 2 (AID 720490).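 Also: actives lower the luminescence signal as inhibitors.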 Format: functional.
The target of experiment [20] is T6, Microphthalmia-associated transcription factor (Homo sapiens, UniProt O75030).
T6 sequence (O75030 whole entry): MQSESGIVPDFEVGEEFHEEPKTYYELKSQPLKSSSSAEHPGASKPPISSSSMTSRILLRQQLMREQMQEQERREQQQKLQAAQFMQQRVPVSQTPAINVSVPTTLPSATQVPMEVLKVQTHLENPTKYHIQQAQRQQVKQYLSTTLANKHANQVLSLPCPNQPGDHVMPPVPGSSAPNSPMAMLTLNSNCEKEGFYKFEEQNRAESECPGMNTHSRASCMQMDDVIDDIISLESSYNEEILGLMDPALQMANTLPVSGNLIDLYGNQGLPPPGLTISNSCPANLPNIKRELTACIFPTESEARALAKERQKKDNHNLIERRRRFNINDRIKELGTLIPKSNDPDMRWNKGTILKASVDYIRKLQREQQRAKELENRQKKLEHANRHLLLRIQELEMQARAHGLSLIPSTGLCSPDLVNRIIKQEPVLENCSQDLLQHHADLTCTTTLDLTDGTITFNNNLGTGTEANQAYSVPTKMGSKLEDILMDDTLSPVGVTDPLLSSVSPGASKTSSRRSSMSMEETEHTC
Description: TRPM1 promoter luciferase signal decrease, dose response, MITF inhibitor project, cell-based, SK-MEL-5, cherry-picked, set 3 (AID 493073).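 Also: SK-MEL-5 melanoma cells with luciferase driven by the MITF target TRPM1 promoter.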 Type of experiment: functional.

Experiment [21] in a line: HEK293 cell cytotoxicity, dose response, cytotoxicity control, plate reader, cherry-picked samples (AID 743446). Type of experiment: functional, cell-based.
Experiment [22] is described as follows: Shn3 3'UTR reporter inhibitors, dose response, cell-based, Clone20 osteoblasts, firefly luciferase, cherry-picked (AID 624132).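 Also: firefly luciferase luminescence from reporter carrying the Shn3 3'UTR in osteoblasts.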 Type of experiment: functional.

Activity calls are given as the source filed them. A value given as a limit tells only on which side of the number the result lay.

The term AC50 denotes the midpoint of the concentration-response curve, whichever way the signal moves. One may read the EC50 as the concentration giving half of the maximal effect.

T2 sequence (Q9UBE0 whole entry): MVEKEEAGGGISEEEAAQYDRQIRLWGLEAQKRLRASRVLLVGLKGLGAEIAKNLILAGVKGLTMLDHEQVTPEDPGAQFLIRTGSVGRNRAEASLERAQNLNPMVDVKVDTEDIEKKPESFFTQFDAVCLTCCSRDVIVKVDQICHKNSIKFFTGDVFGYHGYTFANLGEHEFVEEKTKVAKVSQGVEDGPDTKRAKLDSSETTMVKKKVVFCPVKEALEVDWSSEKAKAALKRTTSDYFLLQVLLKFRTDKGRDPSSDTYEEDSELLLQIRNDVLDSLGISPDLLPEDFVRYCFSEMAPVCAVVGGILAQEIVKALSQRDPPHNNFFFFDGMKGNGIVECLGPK
T2 sequence (Q9UBT2 whole entry): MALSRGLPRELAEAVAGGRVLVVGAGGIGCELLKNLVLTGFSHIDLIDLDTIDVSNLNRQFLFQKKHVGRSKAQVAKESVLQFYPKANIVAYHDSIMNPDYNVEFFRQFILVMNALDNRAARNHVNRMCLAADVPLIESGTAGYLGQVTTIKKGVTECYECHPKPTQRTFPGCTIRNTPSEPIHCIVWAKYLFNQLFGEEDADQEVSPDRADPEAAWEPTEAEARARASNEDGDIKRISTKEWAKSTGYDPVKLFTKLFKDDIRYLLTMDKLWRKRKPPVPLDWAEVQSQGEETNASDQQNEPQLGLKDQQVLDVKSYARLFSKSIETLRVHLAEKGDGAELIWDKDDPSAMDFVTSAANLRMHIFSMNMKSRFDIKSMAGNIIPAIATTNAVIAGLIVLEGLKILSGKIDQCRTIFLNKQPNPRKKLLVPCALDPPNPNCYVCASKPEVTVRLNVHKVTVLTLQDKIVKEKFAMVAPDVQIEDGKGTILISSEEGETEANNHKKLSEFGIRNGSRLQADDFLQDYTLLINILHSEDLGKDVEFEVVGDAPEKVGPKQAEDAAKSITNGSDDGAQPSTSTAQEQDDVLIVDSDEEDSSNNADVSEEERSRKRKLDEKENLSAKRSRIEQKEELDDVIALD
T4 sequence (P11940 whole entry): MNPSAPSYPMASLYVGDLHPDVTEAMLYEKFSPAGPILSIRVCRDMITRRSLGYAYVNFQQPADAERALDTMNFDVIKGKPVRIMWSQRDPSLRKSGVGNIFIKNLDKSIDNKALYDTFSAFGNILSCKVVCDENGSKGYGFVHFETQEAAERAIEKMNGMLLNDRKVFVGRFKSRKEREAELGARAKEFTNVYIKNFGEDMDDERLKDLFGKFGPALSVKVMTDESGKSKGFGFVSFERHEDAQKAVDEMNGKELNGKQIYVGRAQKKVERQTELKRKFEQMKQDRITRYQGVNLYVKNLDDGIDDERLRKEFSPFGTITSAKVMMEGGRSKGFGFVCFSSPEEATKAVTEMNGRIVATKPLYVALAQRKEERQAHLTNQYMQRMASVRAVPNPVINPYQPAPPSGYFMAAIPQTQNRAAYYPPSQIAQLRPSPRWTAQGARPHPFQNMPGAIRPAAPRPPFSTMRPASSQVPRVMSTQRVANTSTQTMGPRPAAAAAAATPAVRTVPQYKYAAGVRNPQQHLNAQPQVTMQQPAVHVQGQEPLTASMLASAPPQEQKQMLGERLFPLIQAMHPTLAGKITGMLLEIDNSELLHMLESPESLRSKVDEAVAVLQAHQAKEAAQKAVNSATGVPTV
T1 sequence (Q00975 whole entry): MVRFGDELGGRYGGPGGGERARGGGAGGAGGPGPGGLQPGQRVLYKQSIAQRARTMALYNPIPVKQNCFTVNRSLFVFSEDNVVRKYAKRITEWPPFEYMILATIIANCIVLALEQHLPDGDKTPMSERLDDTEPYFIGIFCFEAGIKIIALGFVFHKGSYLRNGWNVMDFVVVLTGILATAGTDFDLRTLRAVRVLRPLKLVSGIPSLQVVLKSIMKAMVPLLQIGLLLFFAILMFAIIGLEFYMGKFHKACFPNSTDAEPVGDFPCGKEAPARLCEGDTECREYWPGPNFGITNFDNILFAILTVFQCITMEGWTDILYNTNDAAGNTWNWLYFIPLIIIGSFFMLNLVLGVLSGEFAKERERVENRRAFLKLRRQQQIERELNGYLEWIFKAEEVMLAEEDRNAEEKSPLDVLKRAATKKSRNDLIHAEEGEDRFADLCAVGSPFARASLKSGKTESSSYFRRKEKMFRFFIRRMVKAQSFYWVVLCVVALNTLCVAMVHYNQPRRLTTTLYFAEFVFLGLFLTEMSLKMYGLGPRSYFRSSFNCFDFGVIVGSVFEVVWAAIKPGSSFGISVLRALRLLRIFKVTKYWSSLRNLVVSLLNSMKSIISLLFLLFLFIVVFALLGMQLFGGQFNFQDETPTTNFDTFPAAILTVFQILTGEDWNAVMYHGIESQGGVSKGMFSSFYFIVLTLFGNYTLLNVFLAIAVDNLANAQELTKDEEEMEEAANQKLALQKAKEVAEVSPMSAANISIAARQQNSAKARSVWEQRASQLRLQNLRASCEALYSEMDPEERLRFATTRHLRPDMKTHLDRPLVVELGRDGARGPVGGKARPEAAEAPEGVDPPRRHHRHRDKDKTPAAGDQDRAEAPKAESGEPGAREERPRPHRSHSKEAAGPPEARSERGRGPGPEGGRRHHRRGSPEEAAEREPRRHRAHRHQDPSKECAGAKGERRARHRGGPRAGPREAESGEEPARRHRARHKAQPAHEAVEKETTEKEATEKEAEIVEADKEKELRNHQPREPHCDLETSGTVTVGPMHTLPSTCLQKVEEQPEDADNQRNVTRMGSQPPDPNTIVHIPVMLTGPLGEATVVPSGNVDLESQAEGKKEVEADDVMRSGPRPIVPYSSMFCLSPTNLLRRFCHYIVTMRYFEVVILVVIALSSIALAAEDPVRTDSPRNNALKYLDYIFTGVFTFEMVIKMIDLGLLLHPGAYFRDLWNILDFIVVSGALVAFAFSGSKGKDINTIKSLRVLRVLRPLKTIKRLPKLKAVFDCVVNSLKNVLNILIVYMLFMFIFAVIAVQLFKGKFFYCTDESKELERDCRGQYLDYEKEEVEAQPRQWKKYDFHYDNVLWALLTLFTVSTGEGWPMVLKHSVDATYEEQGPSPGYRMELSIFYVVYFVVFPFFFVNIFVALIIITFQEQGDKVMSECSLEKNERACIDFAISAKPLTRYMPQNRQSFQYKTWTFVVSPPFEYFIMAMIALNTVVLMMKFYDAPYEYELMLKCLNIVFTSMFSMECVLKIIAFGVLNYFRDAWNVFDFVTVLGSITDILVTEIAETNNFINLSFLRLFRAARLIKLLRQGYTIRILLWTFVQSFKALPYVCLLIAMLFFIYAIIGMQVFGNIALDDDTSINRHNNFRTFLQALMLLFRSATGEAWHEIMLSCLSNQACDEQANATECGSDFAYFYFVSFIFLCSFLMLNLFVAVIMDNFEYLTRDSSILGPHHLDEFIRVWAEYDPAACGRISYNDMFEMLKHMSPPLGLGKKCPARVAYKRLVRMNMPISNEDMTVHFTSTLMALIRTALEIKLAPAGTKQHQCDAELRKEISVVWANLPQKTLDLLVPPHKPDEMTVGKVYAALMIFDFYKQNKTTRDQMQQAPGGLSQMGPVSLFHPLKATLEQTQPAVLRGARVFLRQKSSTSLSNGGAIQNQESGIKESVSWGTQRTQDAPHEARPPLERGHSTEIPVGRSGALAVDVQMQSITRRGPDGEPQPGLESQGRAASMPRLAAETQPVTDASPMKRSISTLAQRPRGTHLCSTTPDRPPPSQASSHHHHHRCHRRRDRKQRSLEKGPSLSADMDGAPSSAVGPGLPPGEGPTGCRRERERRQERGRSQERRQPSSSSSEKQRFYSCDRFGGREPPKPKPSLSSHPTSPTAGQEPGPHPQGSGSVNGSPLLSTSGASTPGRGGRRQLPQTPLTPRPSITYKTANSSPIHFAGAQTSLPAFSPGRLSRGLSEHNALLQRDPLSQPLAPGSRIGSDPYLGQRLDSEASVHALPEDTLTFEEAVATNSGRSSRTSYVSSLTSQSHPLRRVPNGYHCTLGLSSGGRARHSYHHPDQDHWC
T1 sequence (Q02410 whole entry): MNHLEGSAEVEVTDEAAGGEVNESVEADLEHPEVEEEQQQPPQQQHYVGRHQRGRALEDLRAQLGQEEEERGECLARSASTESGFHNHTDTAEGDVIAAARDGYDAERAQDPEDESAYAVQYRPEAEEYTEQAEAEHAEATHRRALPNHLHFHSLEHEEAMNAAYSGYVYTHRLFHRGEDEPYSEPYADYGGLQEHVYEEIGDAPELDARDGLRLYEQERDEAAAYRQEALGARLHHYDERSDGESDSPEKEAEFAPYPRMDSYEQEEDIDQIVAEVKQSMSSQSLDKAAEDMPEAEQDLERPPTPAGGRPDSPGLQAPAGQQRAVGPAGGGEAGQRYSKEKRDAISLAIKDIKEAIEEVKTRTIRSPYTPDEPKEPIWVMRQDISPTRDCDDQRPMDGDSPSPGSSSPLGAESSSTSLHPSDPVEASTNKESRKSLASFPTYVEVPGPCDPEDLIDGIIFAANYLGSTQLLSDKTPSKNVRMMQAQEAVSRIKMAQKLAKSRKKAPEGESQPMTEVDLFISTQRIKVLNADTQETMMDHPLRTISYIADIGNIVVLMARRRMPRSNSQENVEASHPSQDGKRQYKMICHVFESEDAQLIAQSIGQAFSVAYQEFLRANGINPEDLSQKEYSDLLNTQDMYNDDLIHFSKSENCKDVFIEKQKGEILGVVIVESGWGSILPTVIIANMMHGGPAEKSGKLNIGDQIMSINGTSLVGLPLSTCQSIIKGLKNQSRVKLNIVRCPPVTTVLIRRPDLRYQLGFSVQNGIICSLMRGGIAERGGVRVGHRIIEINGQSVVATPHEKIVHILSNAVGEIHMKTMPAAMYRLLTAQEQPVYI

Take `CCOC(=O)c1c2ccc(OCC(=O)NN)cc2n2ccccc12`: the AC50 in the experiment “cells” is > 52 µM (inactive). In addition, the IC50 in experiment [1] is 40.2 µM (active); on SUMO-activating enzyme [2], 6.82 µM (active); in experiment [3], > 50 µM (not active); on SUMO-activating enzyme [4] it was 1.64 µM (active); in experiment [5] it was 18.5 µM (active); in [6] it was 33.6 µM (inactive). In addition, the IC50 in experiment [7] was 62.8 µM (inactive); in [8], 2.73 µM (active); in [9], > 66 µM (inactive).
On to `CC(=O)c1ccc(N2CCN(C(=O)Cc3cccs3)CC2)cc1`, for which the concentration at half-maximal activity (AC50) was 11.6 µM (active) in experiment [10], > 52 µM (inactive) in [11], > 52 µM (inactive) in the experiment with HEK293 and 3.82 µM (active) in [12].
As to `C=CCC1(CC=C)CCCN1C(=O)c1cc(COc2ccc(-n3cncn3)cc2)on1`, the IC50 in [13] was 7.88 µM (active).
As to `O=C(O)c1cccc(COc2ccccc2Cl)c1`, the AC50 is > 52 µM (inactive) in experiment [14]; 0.488 µM (active) in experiment [16]; 0.517 µM (active) in experiment [17]; > 52 µM (inactive) in [18]; 4.74 µM (active) in experiment [19]; 0.756 µM (active) in experiment [20]. Further, the AC50 in experiment [21] was > 52 µM (inactive); in [22], 1.48 µM (active). Also, the concentration for a half-maximal effect (EC50) in experiment [15] was 1.06 µM (active).
